Publication PMC12845261, “Design, Synthesis, and Biological Evaluation of N-Acyl-Hydrazone-Linked Quinazolinone Derivatives with Antioxidant, Antimicrobial, and Anticancer Potential” (Pharmaceuticals, 2025)
Values joined by “and” are separate entries in the source; they are usually repeats but may differ in a detail not shown here. Identical values can stand only once.

Columns and labels:
[1] = system: VERO (non-tumoral African green monkey kidney epithelial cells); assay: Cytotoxicity, MTT assay; assay type: cell-based; conditions: 24 h; for Cytotoxic effect on normal cells (in words): 3.125 to 50 µM
Description: For the cytotoxicity screening of the N-acyl-hydrazone derivatives, three cell lines were employed: HT-29 (human colorectal adenocarcinoma), A431 (human epidermoid carcinoma), and VERO (non-tumoral African green monkey kidney epithelial cells). All cell lines were obtained from the American Type Culture Collection (ATCC, Manassas, VA, USA), and maintained in appropriate culture media as follows: HT-29 and A431 cells were cultured in Dulbecco’s Modified Eagle Medium (DMEM), while VERO cells were cultured in Minimum Essential Medium (MEM). Both culture media were supplemented with 10% fetal bovine serum (FBS) and 1% penicillin-streptomycin mix, to formulate the complete culture medium. All cell lines were incubated at 37 °C in a humidified atmosphere containing 5% CO2. […] For the cytotoxicity screening, cells were seeded into sterile 96-well plates at an initial density of 1 × 10^4 cells/well and allowed to adhere for 24 h. Subsequently, cells were treated with increasing concentrations (3.125 to 50 µM) of compounds 1a–1f and 2 for 24 h. In parallel, 5-fluorouracil (5-FU, Sigma Aldrich, St. Louis, MO, USA) was included as a reference drug and tested over the same concentration range under identical experimental conditions. […] For the experimental control, culture medium was refreshed at the time of treatment application. […] Louis, MO, USA). Briefly, the culture media were discarded from each well and replaced with a fresh solution of MTT (1 mg/mL). Plates were incubated for 4 h at 37 °C, and the resulting formazan crystals were solubilized with isopropanol. The absorbance was measured at 550 nm using the FlexStation III multimodal reader (Molecular Devices, San Jose, CA, USA). All experiments were performed in triplicate and repeated in three independent assays. Cell viability was calculated as a percentage relative to the untreated control using the formula Cell Viability (%) = (Abs treated/Abs control) × 100. Data were processed using GraphPad Prism 6.0 and presented as mean ± standard deviation (SD). Statistical analysis was performed using one-way analysis of variance (ANOVA) followed by Dunnett’s post hoc test for comparison with the untreated control group.

[2] = system: Artemia franciscana; assay: Artemia franciscana toxicity assay (nauplii lethality); conditions: from LC50 at 48 h, standard aquatic toxicity classifications [53]
Description: (§1) The brine shrimp cysts (Artemia franciscana) were sourced from Great Salt Lake (USA) through Ocean Star International (Burlingame, CA, USA) via S.K. Trading (Bangkok, Thailand), which carried out the repackaging. Artificial seawater was prepared by dissolving a CoralMarine salt mixture (Grotech) in distilled water to achieve a concentration of about 30 g/L. The cysts were placed in artificial seawater at 25 °C under vigorous aeration. They were allowed to hatch 48 h before the onset of the test, the brine shrimp nauplii stage being selected for the toxicity assay.
(§2) The analyzed compounds were dissolved in 100 μL DMSO and then suspended in seawater to a final volume of 10 mL. The starting concentration was 1000 μM, followed by binary dilutions with seawater: 500 μM, 250 μM, 125 μM and 62.5 μM. A blank solution of 100 μL DMSO and seawater up to 10 mL was also prepared. 24 well-plates (6 × 4) were used and the assay was conducted in triplicate for each concentration and the blank solution. 15 ± 3 nauplii were added to each well, and the plates were placed into the dark. The viability of the nauplii was monitored at 24 and 48 h.
(§3) The LC50 was estimated by interpolation using RStudio 2025.09.2 [84, 85], the drc package. Several non-linear regression models were applied: generalized log logistic regressions (LL.2, LL2.2, LL.4, LL.5) and Weibull functions (W1.2, W1.3, W2.2, W2.3).

[3] = as above; conditions: Artemia franciscana (brine shrimp) nauplii, in vivo
Description: as §1, §2, §3

[4] = at lower concentrations (below 50 µM)

Row | SMILES | Effect on cell viability (in words) [1, 4] | Cytotoxic effect on normal cells (in words) [1] | further results
1 | Cc1nc2ccccc2c(=O)n1CC(=O)N/N=C/c1cc(Br)cc(Br)c1O [Compound 1b, N′-[(E)-(3,5-bromo-2-hydroxyphenyl)methylidene]-2-(2-methyl-4-oxoquinazolin-3(4H)-yl)acetohydrazide] | statistically significant increase in cell viability | – | –
2 | COc1ccc(/C=N/NC(=O)Cn2c(C)nc3ccccc3c2=O)c(O)c1 [Compound 1d, N′-[(E)-(2-hydroxy-4-methoxyphenyl)methylidene]-2-(2-methyl-4-oxoquinazolin-3(4H)-yl)acetohydrazide] | statistically significant increase in cell viability | – | Effect on cell viability (in words) ([1]; at 50 µM, compared to the untreated control): statistically significant decrease in viability
3 | COc1ccc(O)c(/C=N/NC(=O)Cn2c(C)nc3ccccc3c2=O)c1 [Compound 1e, N′-[(E)-(2-hydroxy-5-methoxyphenyl)methylidene]-2-(2-methyl-4-oxoquinazolin-3(4H)-yl)acetohydrazide] | – | strong cytotoxic effects | –
4 | COc1cc(/C=N/NC(=O)Cn2c(C)nc3ccccc3c2=O)cc([N+](=O)[O-])c1O [Compound 1f, N′-[(E)-(4-hydroxy-3-methoxy-5-nitrophenyl)methylidene]-2-(2-methyl-4-oxoquinazolin-3(4H)-yl)acetohydrazide] | – | well tolerated | –
5 | Cc1nc2ccccc2c(=O)n1CC(=O)NN [Compound 2, 2-(2-methyl-4-oxoquinazolin-3(4H)-yl)acetohydrazide] | – | well tolerated | Toxicity class [2]: moderate toxicity; LC50 at 48 h [3]: 335 µM and 77.2 µg/mL
